Experimental data as given in PMC11480411, “Mucosal sugars delineate pyrazine vs pyrazinone autoinducer signaling in Klebsiella oxytoca” (Nature Communications, 2024).

Experiments:
Assay in all cases: PRESTO-Tango GPCR screen
Assay type in all cases: cell-based
Conditions in all cases: 100 µM
CCKBR = target: T1, CCKBR (Homo sapiens, UniProt P32239)
T1 construct: purchased PRESTO-Tango GPCR kit (Roth lab / Addgene)
Procedure, shortened: (§1)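 A Tango reporter setup in HTLA cells was used, with each receptor introduced by transient transfection. Compound exposure lasted 20 h at 100 μM final, followed by Bright-Glo luminescence measurement; activation was expressed relative to PBS-treated wells.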

F2RL1 = target: T2, F2RL1 (Homo sapiens, UniProt P55085)
T2 construct: purchased PRESTO-Tango GPCR kit (Roth lab / Addgene)
Procedure, shortened: as §1

TACR1 = target: T3, TACR1 (Homo sapiens, UniProt P25103)
T3 construct: purchased PRESTO-Tango GPCR kit (Roth lab / Addgene)
Procedure, shortened: as §1

ADRA1A = target: T4, ADRA1A (Homo sapiens, UniProt P35348)
T4 construct: purchased PRESTO-Tango GPCR kit (Roth lab / Addgene)
Procedure, shortened: as §1

MC5R = target: T5, MC5R (Homo sapiens, UniProt P33032)
T5 construct: purchased PRESTO-Tango GPCR kit (Roth lab / Addgene)
Procedure, shortened: as §1

GPR125 = target: T6, GPR125 (Homo sapiens, UniProt Q8IWK6)
T6 construct: purchased PRESTO-Tango GPCR kit (Roth lab / Addgene)
Procedure, shortened: as §1

CRHR1 = target: T7, CRHR1 (Homo sapiens, UniProt P34998)
T7 construct: purchased PRESTO-Tango GPCR kit (Roth lab / Addgene)
Procedure, shortened: as §1

AVPR1A = target: T8, AVPR1A (Homo sapiens, UniProt P37288)
T8 construct: purchased PRESTO-Tango GPCR kit (Roth lab / Addgene)
Procedure, shortened: as §1

CCR6 = target: T9, CCR6 (Homo sapiens, UniProt P51684)
T9 construct: purchased PRESTO-Tango GPCR kit (Roth lab / Addgene)
Procedure, shortened: as §1

PK1 = target: T10, PK1 (Homo sapiens, UniProt Q8TCW9)
T10 construct: purchased PRESTO-Tango GPCR kit (Roth lab / Addgene)
Procedure, shortened: as §1

CALCRb = target: T11, CALCRb (Homo sapiens, UniProt P30988)
T11 construct: purchased PRESTO-Tango GPCR kit (Roth lab / Addgene)
Procedure, shortened: as §1

GPR4 = target: T12, GPR4 (Homo sapiens, UniProt P46093)
T12 construct: purchased PRESTO-Tango GPCR kit (Roth lab / Addgene)
Procedure, shortened: as §1

GPR173 = target: T13, GPR173 (Homo sapiens, UniProt Q9NS66)
T13 construct: purchased PRESTO-Tango GPCR kit (Roth lab / Addgene)
Procedure, shortened: as §1

MRGPRD = target: T14, MRGPRD (Homo sapiens, UniProt Q8TDS7)
T14 construct: purchased PRESTO-Tango GPCR kit (Roth lab / Addgene)
Procedure, shortened: as §1

GNRHR = target: T15, GNRHR (Homo sapiens, UniProt P30968)
T15 construct: purchased PRESTO-Tango GPCR kit (Roth lab / Addgene)
Procedure, shortened: as §1

GPR19 = target: T16, GPR19 (Homo sapiens, UniProt Q15760)
T16 construct: purchased PRESTO-Tango GPCR kit (Roth lab / Addgene)
Procedure, shortened: as §1

NTSR1 = target: T17, NTSR1 (Homo sapiens, UniProt P30989)
T17 construct: purchased PRESTO-Tango GPCR kit (Roth lab / Addgene)
Procedure, shortened: as §1

GPR97 = target: T18, GPR97 (Homo sapiens, UniProt Q86Y34)
T18 construct: purchased PRESTO-Tango GPCR kit (Roth lab / Addgene)
Procedure, shortened: as §1

MTNR1A = target: T19, MTNR1A (Homo sapiens, UniProt P48039)
T19 construct: purchased PRESTO-Tango GPCR kit (Roth lab / Addgene)
Procedure, shortened: as §1

DRD5 = target: T20, DRD5 (Homo sapiens, UniProt P21918)
T20 construct: purchased PRESTO-Tango GPCR kit (Roth lab / Addgene)
Procedure, shortened: as §1

ADRB2 = target: T21, ADRB2 (Homo sapiens, UniProt P07550)
T21 construct: purchased PRESTO-Tango GPCR kit (Roth lab / Addgene)
Procedure, shortened: as §1

GRM2 = target: T22, GRM2 (Homo sapiens, UniProt Q14416)
T22 construct: purchased PRESTO-Tango GPCR kit (Roth lab / Addgene)
Procedure, shortened: as §1

GPR171 = target: T23, GPR171 (Homo sapiens, UniProt O14626)
T23 construct: purchased PRESTO-Tango GPCR kit (Roth lab / Addgene)
Procedure, shortened: as §1

CNR1 = target: T24, CNR1 (Homo sapiens, UniProt P21554)
T24 construct: purchased PRESTO-Tango GPCR kit (Roth lab / Addgene)
Procedure, shortened: as §1

PK2 = target: T25, PK2 (Homo sapiens, UniProt Q8NFJ6)
T25 construct: purchased PRESTO-Tango GPCR kit (Roth lab / Addgene)
Procedure, shortened: as §1

BDKBR2 = target: T26, BDKBR2 (Homo sapiens, UniProt P30411)
T26 construct: purchased PRESTO-Tango GPCR kit (Roth lab / Addgene)
Procedure, shortened: as §1

CXCR6 = target: T27, CXCR6 (Homo sapiens, UniProt O00574)
T27 construct: purchased PRESTO-Tango GPCR kit (Roth lab / Addgene)
Procedure, shortened: as §1

P2RY6 = target: T28, P2RY6 (Homo sapiens, UniProt Q15077)
T28 construct: purchased PRESTO-Tango GPCR kit (Roth lab / Addgene)
Procedure, shortened: as §1

OPN3 = target: T29, OPN3 (Homo sapiens, UniProt Q9H1Y3)
T29 construct: purchased PRESTO-Tango GPCR kit (Roth lab / Addgene)
Procedure, shortened: as §1

TAAR5 = target: T30, TAAR5 (Homo sapiens, UniProt O14804)
T30 construct: purchased PRESTO-Tango GPCR kit (Roth lab / Addgene)
Procedure, shortened: as §1

GPR162 = target: T31, GPR162 (Homo sapiens, UniProt Q16538)
T31 construct: purchased PRESTO-Tango GPCR kit (Roth lab / Addgene)
Procedure, shortened: as §1

GLP2R = target: T32, GLP2R (Homo sapiens, UniProt O95838)
T32 construct: purchased PRESTO-Tango GPCR kit (Roth lab / Addgene)
Procedure, shortened: as §1

GPR119 = target: T33, GPR119 (Homo sapiens, UniProt Q8TDV5)
T33 construct: purchased PRESTO-Tango GPCR kit (Roth lab / Addgene)
Procedure, shortened: as §1

P2RY2 = target: T34, P2RY2 (Homo sapiens, UniProt P41231)
T34 construct: purchased PRESTO-Tango GPCR kit (Roth lab / Addgene)
Procedure, shortened: as §1

TAAR9 = target: T35, TAAR9 (Homo sapiens, UniProt Q96RI9)
T35 construct: purchased PRESTO-Tango GPCR kit (Roth lab / Addgene)
Procedure, shortened: as §1

CXCR4 = target: T36, CXCR4 (Homo sapiens, UniProt P61073)
T36 construct: purchased PRESTO-Tango GPCR kit (Roth lab / Addgene)
Procedure, shortened: as §1

T5 sequence (P33032 whole entry): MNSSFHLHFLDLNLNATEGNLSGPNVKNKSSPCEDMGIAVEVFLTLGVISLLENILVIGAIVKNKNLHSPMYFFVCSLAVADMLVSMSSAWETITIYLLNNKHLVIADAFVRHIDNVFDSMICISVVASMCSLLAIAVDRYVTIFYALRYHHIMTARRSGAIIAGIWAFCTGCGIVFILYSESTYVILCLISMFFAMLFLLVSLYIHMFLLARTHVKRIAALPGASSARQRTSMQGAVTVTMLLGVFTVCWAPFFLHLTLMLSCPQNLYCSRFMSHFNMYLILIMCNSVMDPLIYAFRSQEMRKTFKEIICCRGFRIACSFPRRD
T13 sequence (Q9NS66 whole entry): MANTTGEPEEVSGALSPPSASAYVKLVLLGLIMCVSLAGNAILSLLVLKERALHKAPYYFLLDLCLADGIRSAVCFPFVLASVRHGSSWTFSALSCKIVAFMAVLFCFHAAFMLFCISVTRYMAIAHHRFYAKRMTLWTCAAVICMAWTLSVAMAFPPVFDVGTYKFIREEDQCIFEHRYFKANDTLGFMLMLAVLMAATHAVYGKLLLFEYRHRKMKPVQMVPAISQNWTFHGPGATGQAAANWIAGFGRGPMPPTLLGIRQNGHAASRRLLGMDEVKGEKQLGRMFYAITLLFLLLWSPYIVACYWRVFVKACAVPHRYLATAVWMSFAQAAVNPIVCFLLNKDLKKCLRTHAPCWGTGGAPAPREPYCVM
T28 sequence (Q15077 whole entry): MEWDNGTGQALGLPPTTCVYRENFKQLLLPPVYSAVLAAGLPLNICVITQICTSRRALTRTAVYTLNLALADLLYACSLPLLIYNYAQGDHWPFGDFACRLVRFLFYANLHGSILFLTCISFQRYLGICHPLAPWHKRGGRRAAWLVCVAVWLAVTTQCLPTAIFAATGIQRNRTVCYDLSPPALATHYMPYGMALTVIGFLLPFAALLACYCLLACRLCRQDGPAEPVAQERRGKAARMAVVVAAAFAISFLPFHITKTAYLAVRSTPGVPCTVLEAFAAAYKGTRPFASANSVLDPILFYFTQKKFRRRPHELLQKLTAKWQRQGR
T1 sequence (P32239 whole entry): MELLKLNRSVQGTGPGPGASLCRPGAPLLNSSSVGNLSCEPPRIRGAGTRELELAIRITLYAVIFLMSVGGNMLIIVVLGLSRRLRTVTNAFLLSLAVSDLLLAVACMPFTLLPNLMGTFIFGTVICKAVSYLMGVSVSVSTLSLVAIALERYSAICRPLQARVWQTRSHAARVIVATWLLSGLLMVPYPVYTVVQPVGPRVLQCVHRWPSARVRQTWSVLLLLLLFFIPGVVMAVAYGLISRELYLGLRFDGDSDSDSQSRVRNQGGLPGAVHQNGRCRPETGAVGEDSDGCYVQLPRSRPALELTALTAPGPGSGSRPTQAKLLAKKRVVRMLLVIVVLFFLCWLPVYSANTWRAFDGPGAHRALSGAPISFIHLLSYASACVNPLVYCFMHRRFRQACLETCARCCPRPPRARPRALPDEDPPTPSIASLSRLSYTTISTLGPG
T18 sequence (Q86Y34 21-549): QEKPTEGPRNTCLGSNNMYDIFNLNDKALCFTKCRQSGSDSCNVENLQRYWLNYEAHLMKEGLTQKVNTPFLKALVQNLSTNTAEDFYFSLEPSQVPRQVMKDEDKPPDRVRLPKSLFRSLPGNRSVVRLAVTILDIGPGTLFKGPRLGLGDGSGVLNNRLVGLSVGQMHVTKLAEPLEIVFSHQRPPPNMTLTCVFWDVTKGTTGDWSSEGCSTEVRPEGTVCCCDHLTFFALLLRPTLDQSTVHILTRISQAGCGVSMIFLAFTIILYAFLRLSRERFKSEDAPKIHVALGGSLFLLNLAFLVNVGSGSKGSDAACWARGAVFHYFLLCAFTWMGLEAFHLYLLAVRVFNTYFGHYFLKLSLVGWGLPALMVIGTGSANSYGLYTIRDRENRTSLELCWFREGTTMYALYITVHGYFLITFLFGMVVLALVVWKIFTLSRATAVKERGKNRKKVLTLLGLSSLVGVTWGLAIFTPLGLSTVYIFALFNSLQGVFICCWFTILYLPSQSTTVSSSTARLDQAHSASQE
T35 sequence (Q96RI9 whole entry): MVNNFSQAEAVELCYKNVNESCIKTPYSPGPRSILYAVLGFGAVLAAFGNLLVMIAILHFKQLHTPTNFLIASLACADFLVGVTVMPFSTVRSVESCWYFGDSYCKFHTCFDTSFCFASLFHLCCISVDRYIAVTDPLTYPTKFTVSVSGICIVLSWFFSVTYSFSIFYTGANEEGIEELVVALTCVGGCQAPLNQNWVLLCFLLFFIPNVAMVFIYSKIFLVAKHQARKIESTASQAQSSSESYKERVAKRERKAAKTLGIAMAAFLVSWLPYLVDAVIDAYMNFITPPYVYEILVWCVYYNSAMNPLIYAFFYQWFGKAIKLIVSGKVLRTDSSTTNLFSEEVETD
T32 sequence (O95838 whole entry): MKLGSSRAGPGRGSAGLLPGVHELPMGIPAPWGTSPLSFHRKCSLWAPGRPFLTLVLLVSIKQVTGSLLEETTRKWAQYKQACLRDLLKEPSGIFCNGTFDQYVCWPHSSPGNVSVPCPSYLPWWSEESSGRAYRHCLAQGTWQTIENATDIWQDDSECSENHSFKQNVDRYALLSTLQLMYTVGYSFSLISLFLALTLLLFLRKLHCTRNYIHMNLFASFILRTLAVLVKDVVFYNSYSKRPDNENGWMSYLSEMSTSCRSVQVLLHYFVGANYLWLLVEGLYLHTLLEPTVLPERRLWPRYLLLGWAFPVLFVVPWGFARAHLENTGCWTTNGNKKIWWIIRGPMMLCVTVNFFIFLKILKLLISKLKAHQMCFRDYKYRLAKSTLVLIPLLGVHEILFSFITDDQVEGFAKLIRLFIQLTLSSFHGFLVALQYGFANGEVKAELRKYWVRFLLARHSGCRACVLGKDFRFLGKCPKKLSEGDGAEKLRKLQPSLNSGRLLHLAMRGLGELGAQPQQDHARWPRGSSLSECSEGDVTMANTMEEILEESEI
T8 sequence (P37288 whole entry): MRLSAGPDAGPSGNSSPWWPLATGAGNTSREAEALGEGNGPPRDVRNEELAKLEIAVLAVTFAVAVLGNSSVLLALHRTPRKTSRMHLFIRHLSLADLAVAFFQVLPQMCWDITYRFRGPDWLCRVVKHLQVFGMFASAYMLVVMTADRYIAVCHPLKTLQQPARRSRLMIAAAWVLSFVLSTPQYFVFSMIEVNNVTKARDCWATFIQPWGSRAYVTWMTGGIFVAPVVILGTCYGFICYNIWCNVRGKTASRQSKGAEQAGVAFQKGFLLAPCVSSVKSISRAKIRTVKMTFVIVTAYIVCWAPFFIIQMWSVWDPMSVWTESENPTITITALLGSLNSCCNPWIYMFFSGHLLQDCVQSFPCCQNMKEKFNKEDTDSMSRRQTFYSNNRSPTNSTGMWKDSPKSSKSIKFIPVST
T6 sequence (Q8IWK6 34-1321): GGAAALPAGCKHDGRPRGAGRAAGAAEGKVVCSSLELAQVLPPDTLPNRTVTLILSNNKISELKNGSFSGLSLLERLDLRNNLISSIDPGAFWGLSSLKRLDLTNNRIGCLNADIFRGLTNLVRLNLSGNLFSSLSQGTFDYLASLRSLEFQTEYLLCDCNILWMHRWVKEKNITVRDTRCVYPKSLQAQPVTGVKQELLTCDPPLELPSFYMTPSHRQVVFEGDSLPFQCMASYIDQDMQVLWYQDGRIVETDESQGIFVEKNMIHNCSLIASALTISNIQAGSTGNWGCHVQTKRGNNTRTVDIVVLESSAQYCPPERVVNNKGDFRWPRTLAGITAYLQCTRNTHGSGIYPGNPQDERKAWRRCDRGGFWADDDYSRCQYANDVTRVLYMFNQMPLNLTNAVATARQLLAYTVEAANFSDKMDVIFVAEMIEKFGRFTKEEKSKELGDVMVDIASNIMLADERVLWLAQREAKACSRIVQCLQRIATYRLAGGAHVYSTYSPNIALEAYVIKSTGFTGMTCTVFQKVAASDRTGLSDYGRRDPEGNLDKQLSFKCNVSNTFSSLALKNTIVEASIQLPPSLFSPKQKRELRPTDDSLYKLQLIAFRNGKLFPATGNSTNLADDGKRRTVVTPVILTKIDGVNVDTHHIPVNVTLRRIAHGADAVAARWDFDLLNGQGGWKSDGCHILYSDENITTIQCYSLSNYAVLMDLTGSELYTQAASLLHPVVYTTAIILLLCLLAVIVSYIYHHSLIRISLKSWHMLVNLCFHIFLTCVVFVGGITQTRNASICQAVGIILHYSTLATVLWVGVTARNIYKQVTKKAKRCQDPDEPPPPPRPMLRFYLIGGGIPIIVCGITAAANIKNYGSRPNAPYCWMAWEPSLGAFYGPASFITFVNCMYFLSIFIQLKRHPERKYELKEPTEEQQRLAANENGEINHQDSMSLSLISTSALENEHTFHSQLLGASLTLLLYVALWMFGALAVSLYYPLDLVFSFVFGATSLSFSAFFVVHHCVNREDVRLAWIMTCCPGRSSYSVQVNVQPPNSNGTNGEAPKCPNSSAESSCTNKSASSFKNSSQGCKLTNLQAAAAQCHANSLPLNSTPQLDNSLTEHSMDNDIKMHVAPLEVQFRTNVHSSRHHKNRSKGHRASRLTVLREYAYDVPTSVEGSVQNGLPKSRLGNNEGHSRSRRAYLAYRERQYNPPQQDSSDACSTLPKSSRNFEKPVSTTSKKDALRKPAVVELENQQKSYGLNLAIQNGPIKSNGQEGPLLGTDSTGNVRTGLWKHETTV
T2 sequence (P55085 26-397): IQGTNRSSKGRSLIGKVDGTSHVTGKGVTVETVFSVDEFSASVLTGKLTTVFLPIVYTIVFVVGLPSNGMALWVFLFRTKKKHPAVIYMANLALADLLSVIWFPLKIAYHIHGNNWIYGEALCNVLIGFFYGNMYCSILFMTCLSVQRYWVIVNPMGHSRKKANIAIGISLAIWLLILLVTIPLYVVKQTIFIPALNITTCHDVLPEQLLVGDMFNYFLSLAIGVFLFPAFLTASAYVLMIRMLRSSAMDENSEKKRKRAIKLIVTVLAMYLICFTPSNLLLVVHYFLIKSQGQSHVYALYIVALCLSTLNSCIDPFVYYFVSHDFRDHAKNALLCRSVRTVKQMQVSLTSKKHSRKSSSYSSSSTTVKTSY

| Structure (SMILES) | GPCR activation (heatmap value) (CCKBR) | GPCR activation (heatmap value) (F2RL1) | GPCR activation (heatmap value) (TACR1) | GPCR activation (heatmap value) (ADRA1A) | GPCR activation (heatmap value) (MC5R) | GPCR activation (heatmap value) (GPR125) | GPCR activation (heatmap value) (CRHR1) | GPCR activation (heatmap value) (AVPR1A) | GPCR activation (heatmap value) (CCR6) | GPCR activation (heatmap value) (PK1) | GPCR activation (heatmap value) (CALCRb) | GPCR activation (heatmap value) (GPR4) | GPCR activation (heatmap value) (GPR173) | GPCR activation (heatmap value) (MRGPRD) | GPCR activation (heatmap value) (GNRHR) | GPCR activation (heatmap value) (GPR19) | GPCR activation (heatmap value) (NTSR1) | GPCR activation (heatmap value) (GPR97) | GPCR activation (heatmap value) (MTNR1A) | GPCR activation (heatmap value) (DRD5) | further results |
| --- | --- | --- | --- | --- | --- | --- | --- | --- | --- | --- | --- | --- | --- | --- | --- | --- | --- | --- | --- | --- | --- |
| CC(C)Cc1ncc(CCCCNC(=N)N)[nH]c1=O [3-Homo] | 0.2356 | -0.2678 | -0.4178 | -0.07966 | 0.4155 | -0.2637 | 0.4025 | 0.8531 | -1.378 | -0.2718 | -1.592 | 0.3486 | -0.8728 | 0.2698 | -0.5775 | -0.2115 | 0.1673 | -0.2469 | -0.06354 | -0.03134 | GPCR activation (heatmap value) (ADRB2): -0.1039; GPCR activation (heatmap value) (GRM2): -1.403; GPCR activation (heatmap value) (GPR171): -0.9424; GPCR activation (heatmap value) (CNR1): -0.2406; GPCR activation (heatmap value) (PK2): -0.9094; GPCR activation (heatmap value) (BDKBR2): -0.09391; GPCR activation (heatmap value) (CXCR6): 1.014; GPCR activation (heatmap value) (P2RY6): -0.2248; GPCR activation (heatmap value) (OPN3): 0.7317; GPCR activation (heatmap value) (TAAR5): -0.4757; GPCR activation (heatmap value) (GPR162): -0.5864; GPCR activation (heatmap value) (GLP2R): -0.3479; GPCR activation (heatmap value) (GPR119): -1.3809; GPCR activation (heatmap value) (P2RY2): -0.0487; GPCR activation (heatmap value) (TAAR9): -0.5012; GPCR activation (heatmap value) (CXCR4): 0.1574 |
| CC(C)Cc1ncc(CCCNC(=N)N)[nH]c1=O [compound 3] | 0.2979 | 0.6997 | -0.6956 | -0.2156 | -0.2243 | 0.4657 | -0.3752 | 0.9724 | 0.5005 | -0.4687 | -0.6231 | 0.5113 | -0.2495 | -0.4298 | 0.3051 | -0.1336 | -0.1053 | -0.1675 | 0.3857 | 1.05 | GPCR activation (heatmap value) (ADRB2): 0.6209; GPCR activation (heatmap value) (GRM2): -1.186; GPCR activation (heatmap value) (GPR171): 0.9197; GPCR activation (heatmap value) (CNR1): 0.2678; GPCR activation (heatmap value) (PK2): -0.4477; GPCR activation (heatmap value) (BDKBR2): -0.1686; GPCR activation (heatmap value) (CXCR6): 0.09324; GPCR activation (heatmap value) (P2RY6): 0.4506; GPCR activation (heatmap value) (OPN3): 0.9288; GPCR activation (heatmap value) (TAAR5): -0.8641; GPCR activation (heatmap value) (GPR162): 0.329; GPCR activation (heatmap value) (GLP2R): 0.1898; GPCR activation (heatmap value) (GPR119): 0.03995; GPCR activation (heatmap value) (P2RY2): 0.0313; GPCR activation (heatmap value) (TAAR9): -0.2146; GPCR activation (heatmap value) (CXCR4): -0.06133 |
